What all share (test): MIC of meropenem in combination with compound, CDC carbapenem resistant strain
What all share (type): cell-based

For assay [1], the system named is K. pneumoniae (Kp) AR# 40. How it is done:
(§1) EXAMPLE 2: Six compounds were assessed for their activity in combination with meropenem against carbapenem resistant strains of A. baumannii (Ab), K. pneumoniae (Kp), and E. coli acquired from the Center for Disease Control (CDC). AR #—assigned AR-BANK number from the CDC.

Another assay has as its system E. coli AR# 55. The method, then: as §1
Assay [2] deals with K. pneumoniae (Kp) AR# 68. How it is done:
as §1

The next assay concerns A. baumannii (Ab) AR# 83. How it is done:
as §1

A further assay has as its system A. baumannii (Ab) AR# 36. How it is done: as §1
For another assay, the system named is A. baumannii (Ab) AR# 56. How it is done:
as §1

For assay [3], the system named is K. pneumoniae (Kp) AR# 98. How it is done: as §1
A further assay deals with A. baumannii (Ab) AR# 88. The method, then:
as §1

For a further assay, the system named is A. baumannii (Ab) AR# 37. How it is done:
as §1

The next assay deals with A. baumannii (Ab) AR# 70. How it is done:
as §1

Another assay has as its system E. coli AR# 48. The method, then:
as §1

For assay [4], the system named is K. pneumoniae (Kp) AR# 41. How it is done: as §1
For a further assay, the system named is A. baumannii (Ab) AR# 52. How it is done:
as §1

A further assay has as its system A. baumannii (Ab) AR# 33. How it is done: as §1
In another assay the test system is A. baumannii (Ab) AR# 63. How it is done: as §1
For a further assay, the system named is A. baumannii (Ab) AR# 45. How it is done: as §1
The next assay has as its system A. baumannii (Ab) AR# 35. How it is done: as §1
[5] abbreviates: 60 μM of 2-amino imidazole compound.
Setting [6] is: 15 μM of 2-amino imidazole compound.
[7] abbreviates: 30 μM of 2-amino imidazole compound.
Setting [8] is: 2 μM of 2-amino imidazole compound.
The mark [9] stands for this setting: 7 μM of 2-amino imidazole compound.
[10] abbreviates: 4 μM of 2-amino imidazole compound.
The mark [11] stands for this setting: 64 μM of 2-amino imidazole compound.
[12] abbreviates: 16 μM of 2-amino imidazole compound.
Setting [13] is: 32 μM of 2-amino imidazole compound.
[14] abbreviates: 8 μM of 2-amino imidazole compound.

SMILES strings stand for the structures.

For `Nc1ncc(-c2cccc(NC(=O)Nc3cccc(-c4cnc(N)[nH]4)c3)c2)[nH]1` [Compound 92, 1,3-bis(3-(2-amino-1H-imidazol-5-yl)phenyl)urea], the “Minimum Inhibitory Concentration of Meropenem” value in assay [1] (setting [5]) is 256 (60) μg/mL; with E. coli AR# 55 (setting [6]), 128 (15) μg/mL; in [2] (setting [7]), 64 (30) μg/mL; with A. baumannii (Ab) AR# 83 (setting [6]), 64 (15) μg/mL; with A. baumannii (Ab) AR# 36 (setting [6]), 4 (15) μg/mL; in the assay with A. baumannii (Ab) AR# 56 (setting [6]), 8 (15) μg/mL. The “Minimum Inhibitory Concentration of Meropenem” value in assay [3] (setting [5]) is recorded as 64 (60) μg/mL; in the assay on A. baumannii (Ab) AR# 88 (setting [6]) it was 64 (15) μg/mL; in the assay with A. baumannii (Ab) AR# 37 (setting [6]), 32 (15) μg/mL; in the assay on A. baumannii (Ab) AR# 70 (setting [8]) it was 4 (2) μg/mL; with E. coli AR# 48 (setting [9]), 256 (7) μg/mL; in assay [4] (setting [5]) it was 64 (60) μg/mL. Besides, the “Minimum Inhibitory Concentration of Meropenem” value with A. baumannii (Ab) AR# 52 (setting [8]) is given as 2 (2) μg/mL; in the assay on A. baumannii (Ab) AR# 33 (setting [6]), 12 (15) μg/mL; in the assay with A. baumannii (Ab) AR# 63 (setting [9]), 8 (7) μg/mL; in the assay on A. baumannii (Ab) AR# 45 (setting [9]), 2 (7) μg/mL; with A. baumannii (Ab) AR# 35 (setting [7]), 8 (30) μg/mL.

In the case of `Cc1nc(N)[nH]c1-c1cccc(NC(=O)Nc2ccc(C(F)(F)F)c(Cl)c2)c1` [Compound 68, 1-(3-(2-amino-4-methyl-1H-imidazol-5-yl)phenyl)-3-(3-chloro-4-(trifluoromethyl)phenyl)urea], the “Minimum Inhibitory Concentration of Meropenem” value in assay [1] (setting [9]) is 64 (7) μg/mL; in the assay on E. coli AR# 55 (setting [10]), 64 (4) μg/mL; in [2] (setting [9]), 128 (7) μg/mL; in the assay on A. baumannii (Ab) AR# 83 (setting [10]), 64 (4) μg/mL; in the assay on A. baumannii (Ab) AR# 36 (setting [10]), 48 (4) μg/mL; with A. baumannii (Ab) AR# 56 (setting [10]) it was 4 (4) μg/mL. The “Minimum Inhibitory Concentration of Meropenem” value in assay [3] (setting [9]) is reported as 32 (7) μg/mL; in the assay on A. baumannii (Ab) AR# 88 (setting [10]) it was 64 (4) μg/mL; in the assay with A. baumannii (Ab) AR# 37 (setting [10]), 64 (4) μg/mL; in the assay with A. baumannii (Ab) AR# 70 (setting [10]), 1 (4) μg/mL; with E. coli AR# 48 (setting [10]), 128 (4) μg/mL; in assay [4] (setting [10]), 64 (4) μg/mL. Moreover, the “Minimum Inhibitory Concentration of Meropenem” value in the assay with A. baumannii (Ab) AR# 52 (setting [10]) was 4 (4) μg/mL; in the assay with A. baumannii (Ab) AR# 33 (setting [10]) it was 64 (4) μg/mL; with A. baumannii (Ab) AR# 63 (setting [8]), 128 (2) μg/mL; in the assay on A. baumannii (Ab) AR# 45 (setting [10]), 3 (4) μg/mL; in the assay with A. baumannii (Ab) AR# 35 (setting [10]), 64 (4) μg/mL.

Turning to `Nc1ncc(-c2ccc(NC(=O)Nc3ccc(-c4cnc(N)[nH]4)cc3)cc2)[nH]1` [Compound 93, 1,3-bis(4-(2-amino-1H-imidazol-5-yl)phenyl)urea], the “Minimum Inhibitory Concentration of Meropenem” value in assay [1] (setting [11]) was 1024 (64) μg/mL; in the assay with E. coli AR# 55 (setting [12]), 128 (16) μg/mL; in [2] (setting [13]), 32 (32) μg/mL; in the assay with A. baumannii (Ab) AR# 83 (setting [6]), 64 (15) μg/mL; in the assay with A. baumannii (Ab) AR# 36 (setting [6]), 16 (15) μg/mL; in the assay with A. baumannii (Ab) AR# 56 (setting [6]), 16 (15) μg/mL. In addition, the “Minimum Inhibitory Concentration of Meropenem” value in [3] (setting [13]) is listed as 32 (32) μg/mL; in the assay with A. baumannii (Ab) AR# 88 (setting [9]), 64 (7) μg/mL; with A. baumannii (Ab) AR# 37 (setting [9]) it was 64 (7) μg/mL; in the assay on A. baumannii (Ab) AR# 70 (setting [9]), 1 (7) μg/mL; with E. coli AR# 48 (setting [13]) it was 16 (32) μg/mL; in assay [4] (setting [11]), 8 (64) μg/mL. The “Minimum Inhibitory Concentration of Meropenem” value with A. baumannii (Ab) AR# 52 (setting [10]) was 3 (4) μg/mL; in the assay with A. baumannii (Ab) AR# 33 (setting [9]), 64 (7) μg/mL; in the assay with A. baumannii (Ab) AR# 63 (setting [6]) it was 8 (15) μg/mL; in the assay on A. baumannii (Ab) AR# 45 (setting [9]) it was 2 (7) μg/mL; in the assay with A. baumannii (Ab) AR# 35 (setting [6]), 32 (15) μg/mL.

With `Nc1ncc(-c2ccc(NC(=O)Nc3ccc4c(c3)-c3[nH]c(N)nc3CC4)cc2)[nH]1` [Compound 97, 1-(4-(2-amino-1H-imidazol-5-yl)phenyl)-3-(2-amino-4,5-dihydro-1H-naphtho[1,2-d]imidazol-8-yl)urea], the “Minimum Inhibitory Concentration of Meropenem” value in assay [1] (setting [11]) is 1024 (64) μg/mL; with E. coli AR# 55 (setting [13]) it was 256 (32) μg/mL; in assay [2] (setting [13]), 64 (32) μg/mL; in the assay on A. baumannii (Ab) AR# 83 (setting [14]), 16 (8) μg/mL; in the assay on A. baumannii (Ab) AR# 36 (setting [14]) it was 1 (8) μg/mL; with A. baumannii (Ab) AR# 56 (setting [14]) it was 2 (8) μg/mL. For the same compound, the “Minimum Inhibitory Concentration of Meropenem” value in assay [3] (setting [12]) is reported as 32 (16) μg/mL; with A. baumannii (Ab) AR# 88 (setting [12]) it was 32 (16) μg/mL; in the assay with A. baumannii (Ab) AR# 37 (setting [14]), 32 (8) μg/mL; in the assay on A. baumannii (Ab) AR# 70 (setting [14]) it was 0.5 (8) μg/mL; in the assay with E. coli AR# 48 (setting [12]) it was 128 (16) μg/mL; in assay [4] (setting [11]) it was 16 (64) μg/mL. Moreover, the “Minimum Inhibitory Concentration of Meropenem” value is reported as 2 (2) μg/mL in the assay on A. baumannii (Ab) AR# 52 (setting [8]); 4 (16) μg/mL in the assay with A. baumannii (Ab) AR# 33 (setting [12]); 8 (8) μg/mL in the assay with A. baumannii (Ab) AR# 63 (setting [14]); 1 (8) μg/mL with A. baumannii (Ab) AR# 45 (setting [14]); 2 (8) μg/mL in the assay with A. baumannii (Ab) AR# 35 (setting [14]).

`CCCc1ccc(NC(=O)Nc2cccc(-c3cnc(N)[nH]3)c2)cc1` [Compound 2, 1-(3-(2-amino-1H-imidazol-5-yl)phenyl)-3-(4-propylphenyl)urea]: the “Minimum Inhibitory Concentration of Meropenem” value in [1] (setting [11]) is listed as 1024 (64) μg/mL; in the assay on E. coli AR# 55 (setting [11]), 64 (64) μg/mL; in assay [2] (setting [13]), 256 (32) μg/mL; in the assay with A. baumannii (Ab) AR# 83 (setting [6]), 96 (15) μg/mL; in the assay with A. baumannii (Ab) AR# 36 (setting [7]), 4 (30) μg/mL; with A. baumannii (Ab) AR# 56 (setting [6]), 8 (15) μg/mL. In addition, the “Minimum Inhibitory Concentration of Meropenem” value in assay [3] (setting [11]) was 64 (64) μg/mL; with A. baumannii (Ab) AR# 88 (setting [6]), 128 (15) μg/mL; in the assay on A. baumannii (Ab) AR# 37 (setting [6]), 64 (15) μg/mL; with A. baumannii (Ab) AR# 70 (setting [9]) it was 2 (7) μg/mL; in the assay on E. coli AR# 48 (setting [11]), 128 (64) μg/mL; in assay [4] (setting [11]) it was 32 (64) μg/mL. In addition, the “Minimum Inhibitory Concentration of Meropenem” value with A. baumannii (Ab) AR# 52 (setting [6]) is 1.5 (15) μg/mL; in the assay on A. baumannii (Ab) AR# 33 (setting [6]), 32 (15) μg/mL; in the assay on A. baumannii (Ab) AR# 63 (setting [7]), 8 (30) μg/mL; in the assay with A. baumannii (Ab) AR# 45 (setting [6]), 1.5 (15) μg/mL; in the assay on A. baumannii (Ab) AR# 35 (setting [6]) it was 16 (15) μg/mL.

In the case of `Nc1ncc(-c2cccc(NC(=O)Nc3cc(Br)cc(Br)c3)c2)[nH]1` [Compound 7, 1-(3-(2-amino-1H-imidazol-5-yl)phenyl)-3-(3,5-dibromophenyl)urea], the “Minimum Inhibitory Concentration of Meropenem” value in [1] (setting [6]) is 64 (15) μg/mL; with E. coli AR# 55 (setting [6]), 64 (15) μg/mL; in [2] (setting [9]), 128 (7) μg/mL; in the assay on A. baumannii (Ab) AR# 83 (setting [6]) it was 24 (15) μg/mL; with A. baumannii (Ab) AR# 36 (setting [9]) it was 8 (7) μg/mL; in the assay with A. baumannii (Ab) AR# 56 (setting [6]), 8 (15) μg/mL. The “Minimum Inhibitory Concentration of Meropenem” value in [3] (setting [9]) is given as 64 (7) μg/mL; in the assay on A. baumannii (Ab) AR# 88 (setting [6]) it was 64 (15) μg/mL; in the assay on A. baumannii (Ab) AR# 37 (setting [9]) it was 32 (7) μg/mL; in the assay on A. baumannii (Ab) AR# 70 (setting [8]), 4 (2) μg/mL; in the assay on E. coli AR# 48 (setting [6]), 64 (15) μg/mL; in assay [4] (setting [6]), 8 (15) μg/mL. The “Minimum Inhibitory Concentration of Meropenem” value in the assay on A. baumannii (Ab) AR# 52 (setting [10]) was 2 (4) μg/mL; in the assay with A. baumannii (Ab) AR# 33 (setting [6]) it was 16 (15) μg/mL; in the assay with A. baumannii (Ab) AR# 63 (setting [10]), 32 (4) μg/mL; in the assay on A. baumannii (Ab) AR# 45 (setting [6]) it was 1 (15) μg/mL; in the assay on A. baumannii (Ab) AR# 35 (setting [7]) it was 32 (30) μg/mL.
